Experiments:
[1] = system: cynomolgus monkey corneal endothelial cells; test: BrdU ELISA, concentration series, cynomolgus monkey corneal endothelial cells (Example 8); format: cell-based; conditions: concentration series per agent between 0.1 μM and 100 μM; 5000 cells/well; * p<0.01
Method: The medium was removed from a culture dish culturing cynomolgus monkey corneal endothelial cells ([…] phosphate buffer solution (Nacalai Tesque, 14249-95) heated to 37° C. in advance was added thereto and the cells were washed. This operation was repeated twice. After removing the phosphate buffer solution, 0.05% Trypsin-EDTA (Nacalai Tesque, 35554-64) was added and the cells were incubated for 10 minutes at 37° C. (5% CO2). The cells were then suspended in DMEM (Nacalai Tesque, 08456-94)+10% FBS (Biowest, S1820-500)+1% penicillin/streptomycin (P/S, Nacalai Tesque, 26252-94) and centrifuged for 3 minutes at 1200 rpm to collect the cells. A 96-well plate was treated with an FNC coating mix (50 ml ([…], catalog number: 0407). The monkey corneal endothelial cells (lot: 20120404-3L-P8) were seeded in the coated 96-well plate at a ratio of 5000 cells/well. The cells were cultured for 30 hours at 37° C. (5% CO2). After 30 hours, the medium was removed and changed to a serum free medium: DMEM+1% P/S to culture the cells for 18 hours. […] DMSO was added to the control. After 24 hours, a BrdU labeling reagent (Amersham Cell Proliferation Biotrak ELISA System, Version 2, GE Healthcare, catalog number: RPN250) was further added at a ratio of 1:1000 to the DMEM+10% FBS+1% P/S medium. […] DMSO was added to the control. After 24 hours, BrdU ELISA was carried out with Amersham Cell Proliferation Biotrak ELISA System, Version 2 (GE Healthcare, catalog number: RPN250). The absorbance at 450 nm was measured. *P<0.01, Dunnet's test, n=5. As in (1), the medium was removed from a culture dish culturing cynomolgus monkey corneal endothelial cells. A phosphate buffer solution heated to 37° C. in advance was added thereto and the cells were washed. This operation was repeated twice. After removing the phosphate buffer solution, 0.05% Trypsin-EDTA (Nacalai Tesque, 35554-64) was added and the cells were incubated for 10 minutes at 37° C. (5% CO2). The cells were then suspended in DMEM (Nacalai Tesque, 08456-94)+10% FBS (Biowest, S1820-500)+1% penicillin/streptomycin (Nacalai Tesque, catalog number: 26252-94) and centrifuged for 3 minutes at 1200 rpm to collect the cells. A 96-well plate was treated with an FNC coating mix (50 ml ([…], catalog number: 0407). Monkey corneal endothelial cells (lot: 20120404-3L-P8) were seeded in the coated 96-well plate at a ratio of 5000 cells/well. The cells were cultured for 30 hours at 37° C. (5% CO2). After 30 hours, the medium was removed and changed to a serum free medium: DMEM+1% P/S to culture the cells for 18 hours. After 18 hours, Semapimod HCl (MedKoo Biosciences, catalog number: 202590, lot number: SMC20120918) was added to the DMEM+10% FBS+1% P/S medium such that the final concentration dissolved with DMSO was 0.1, 0.3, 1, 3, or 10 μmol/l, and the cells were cultured for 24 hours. DMSO was added to the control. After 24 hours, a BrdU labeling reagent (Amersham Cell Proliferation Biotrak ELISA System, Version 2, GE Healthcare, catalog number: RPN250) was further added at a ratio of 1:1000 to the DMEM+10% FBS+1% P/S medium. Semapimod HCl was added such that the final concentration was 0.1, 0.3, 1, 3, or 10 μmol/l and the cells were cultured for 24 hours. DMSO was added to the control. After 24 hours, BrdU ELISA was carried out with Amersham Cell Proliferation Biotrak ELISA System, Version 2 (GE Healthcare, catalog number: RPN250). The absorbance at 450 nm was measured. […]

[2] = system: cynomolgus monkey corneal endothelial cells; test: BrdU ELISA, one concentration per agent, monkey corneal endothelial cells (Example 9); format: cell-based; conditions: 10 μM SB203580, 1 μM Semapimod, 3 μM BIRB796, 1 μM PH-797804, 3 μM VX-702, 3 μM LY2228820, 3 μM TAK-715, * p<0.01
Method: The medium was removed from a culture dish culturing cynomolgus monkey corneal endothelial cells. PBS (-) heated to 37° C. in advance was added thereto and the cells were washed. This operation was repeated twice. After removing the PBS (-), 0.05% Trypsin-EDTA (NacalaiTesque, 35554-64) was added and the cells were incubated for 10 minutes at 37° C. (5% CO2). The cells were then suspended in DMEM (Nacalai Tesque, 08456-94)+10% FBS (Biowest, S1820-500)+1% penicillin/streptomycin (Nacalai Tesque, catalog number: 26252-94) and centrifuged for 3 minutes at 1200 rpm to collect the cells. A 96-well plate was treated with an FNC coating mix (50 ml ([…], catalog number: 0407). The monkey corneal endothelial cells (lot: 20120404-3L-P9) were seeded in the coated 96-well plate at a ratio of 3000 cells/well. The cells were cultured for 30 hours at 37° C. (5% CO2). After 30 hours, the medium was removed and changed to a serum free medium: DMEM+1% P/S to culture the cells for 18 hours. […] SMC20120918), BIRB796 (Doramapimod) (Selleck Chemicals, catalog number: S1574, lot number: S157402), PH-797804 (Selleck Chemicals, catalog number: S2726, lot number: 01), VX-702 (Selleck Chemicals, catalog number: S6005, lot number: 02), LY2228820 (Selleck Chemicals, catalog number: S1494, lot number: 01), and TAK-715 (Selleck Chemical, catalog number: […] DMSO was added to the control. After 24 hours, a BrdU labeling reagent (Amersham Cell Proliferation Biotrak ELISA System, Version 2, GE Healthcare, catalog number: RPN250) was further added at a ratio of 1:1000 to the DMEM+10% FBS+1% P/S medium. […] DMSO was added to the control. After 24 hours, BrdU ELISA was carried out with Amersham Cell Proliferation Biotrak ELISA System, Version 2 (GE Healthcare, catalog number: RPN250). The absorbance at 450 nm was measured.

Cc1ccc(-n2nc(C(C)(C)C)cc2NC(=O)Nc2ccc(OCCN3CCOCC3)c3ccccc23)cc1 [BIRB796, N-[3-tert-butyl-1-(4-methylphenyl)pyrazole-5-yl]-N′-[4-(2-morpholinoethoxy)-1-naphthyl]urea]
BrdU uptake as a percentage with respect to the control (proliferation) [1]: promotes proliferation | BrdU uptake as a percentage with respect to the control (proliferation) [2]: promotes proliferation

CC(C)(C)Cn1c(N)nc2ccc(-c3nc(C(C)(C)C)[nH]c3-c3ccc(F)cc3)nc21 [LY2228820, 5-(2-(tert-butyl)-5-(4-fluorophenyl)-1H-imidazole-4-yl)-3-neopentyl-3H-imidazo[4,5-b]pyridine-2-amine]
BrdU uptake as a percentage with respect to the control (proliferation) [1]: promotes proliferation | BrdU uptake as a percentage with respect to the control (proliferation) [2]: promotes proliferation

CNC(=O)c1ccc(C)c(-n2c(C)cc(OCc3ccc(F)cc3F)c(Br)c2=O)c1 [PH-797804, 3-(3-bromo-4-((2,4-difluorobenzyl)oxy)-6-methyl-2-oxopyridine-1(2H)-yl)-N,4-dimethylbenzamide]
BrdU uptake as a percentage with respect to the control (proliferation) [1]: promotes proliferation | BrdU uptake as a percentage with respect to the control (proliferation) [2]: promotes proliferation

C[S+]([O-])c1ccc(-c2nc(-c3ccncc3)c(-c3ccc(F)cc3)[nH]2)cc1 (stereo not shown) [SB203580, 4-(4-fluorophenyl)-2-(4-methylsulfinylphenyl)-5-(4-pyridyl)-1H-imidazole]
BrdU uptake as a percentage with respect to the control (proliferation) [1]: promotes proliferation | BrdU uptake as a percentage with respect to the control (proliferation) [2]: promotes proliferation

CCc1nc(-c2cccc(C)c2)c(-c2ccnc(NC(=O)c3ccccc3)c2)s1 [TAK-715, 2-benzamide-4-[2-ethyl-4-(3-methylphenyl)thiazole-5-yl]pyridine]
BrdU uptake as a percentage with respect to the control (proliferation) [1]: promotes proliferation | BrdU uptake as a percentage with respect to the control (proliferation) [2]: promotes proliferation

From patent US10813920B2, “Drug for treating corneal endothelium by promoting cell proliferation or inhibiting cell damage” (THE DOSHISHA, priority 2013, dated 2020)
